Test results published in patent US20220274911A1, “ARYLPROPIONIC ACID DERIVATIVE, PHARMACEUTICAL COMPOSITION AND PREPARATION METHOD AND APPLICATION THEREOF” (NANJING HERON PHARMACEUTICAL SCIENCE AND TECHNOLOGY CO., …, priority 2020, published 2022).

Columns and labels:
[1] = Solubility of the active metabolite of loxoprofen; format: physicochemical
[2] = Physicochemical stability of the active metabolite of loxoprofen; settings: high temperature, high humidity, cold white fluorescent lamp and ultraviolet lamp
[3] = Metabolism of the compound in human plasma (hydrolysis to the active metabolite); format: in vitro ADME; settings: in vitro human plasma; for Remaining Amount of the Prodrug Compound (%): 37° C., 200 rpm, time point of the tabulated value not stated (samples at 0, 15, 30, 60 and 120 min)
Experimental: (1) 40 mM pure acetonitrile stock solutions of Compound 1, Compound 7 and Compound a were prepared;
(2) the stock solution (25 μL) of Compound a was mixed with 1 mL of human plasma and vortexed for 30 s, a sample (200 μL) was added to 800 μL of acetonitrile to precipitate proteins and vortexed for 1 min, and then the reaction was stopped as a control of an active metabolite of loxoprofen; and 40 mM stock solutions of Compound 1 and Compound 7 were diluted 200 times as prodrug controls;
(4) the pure acetonitrile stock solution (100 μL) of each of Compound 1 and Compound 7 was mixed with 4 mL of human plasma, vortexed for 30 s, and oscillated at 200 rpm in an oscillating water bath heater with a constant temperature of 37° C.;
(5) samples (200 μL) were taken at different time points (0, 15, 30, 60 and 120 min) with three samples at each time point, added with 800 μL of acetonitrile to precipitate proteins and vortexed for 1 min, and then the reaction was stopped; and a blank plasma control was obtained in the same manner;
(6) the samples were centrifuged at 12000 rpm for 10 min at 4° C., the supernatant was taken and injected at a volume of 30 μL (through a filter membrane), and changes of a peak area were recorded;
(7) hydrolysis rates of Compound 1 and Compound 7 were observed and analyzed.

| solubility ([1]; in a slightly alkaline aqueous solution) | solubility ([1]; in pure water) | physicochemical stability [2] | Remaining Amount of the Prodrug Compound (%) [3] | Structure (SMILES) | transformation into the active metabolite [3] | metabolic rate ([3]; compared with Compound 1) |
| --- | --- | --- | --- | --- | --- | --- |
| soluble | low solubility | poor physicochemical stability | – | C[C@H](C(=O)O)c1ccc(C[C@H]2CCC[C@@H]2O)cc1 [Compound a, (S)-2-(4-(((1R, 2S)-2-hydroxycyclopentyl)methyl)phenyl)propionic acid] | – | – |
| – | – | – | 21.41% ± 0.49% | CC(=O)OC(C)OC(=O)[C@@H](C)c1ccc(C[C@H]2CCC[C@@H]2O)cc1 (some centres unmarked) [Compound 7] | rapidly transformed into the active metabolite | slightly faster than that of Compound 1 without a significant difference |
| – | – | – | 35.41% ± 1.83% | CCOC(=O)OC(C)OC(=O)[C@@H](C)c1ccc(C[C@H]2CCC[C@@H]2O)cc1 (some centres unmarked) [Compound 1] | rapidly transformed into the active metabolite | – |
